Source: article PMC4232510, “Identification of Functionally Important Residues of the Rat P2X4 Receptor by Alanine Scanning Mutagenesis of the Dorsal Fin and Left Flipper Domains” (PLoS ONE, 2014)
Changes are numbered by the printed parent chain.

How the values were obtained:
Test in all cases: whole-cell patch clamp, HEK293T cells expressing mutant
Format in all cases: cell-based
rP2X4R R282A mutant = biological target: T1, rP2X4R R282A mutant (Rattus norvegicus, UniProt P51577, R282A); settings: for relative responsiveness: 100 µM agonist 2 s, relative to ATP (100%)
T1 construct: expressed in transfected cells; host or cells: HEK293T
T1 sequence (P51577 1-388 R282A): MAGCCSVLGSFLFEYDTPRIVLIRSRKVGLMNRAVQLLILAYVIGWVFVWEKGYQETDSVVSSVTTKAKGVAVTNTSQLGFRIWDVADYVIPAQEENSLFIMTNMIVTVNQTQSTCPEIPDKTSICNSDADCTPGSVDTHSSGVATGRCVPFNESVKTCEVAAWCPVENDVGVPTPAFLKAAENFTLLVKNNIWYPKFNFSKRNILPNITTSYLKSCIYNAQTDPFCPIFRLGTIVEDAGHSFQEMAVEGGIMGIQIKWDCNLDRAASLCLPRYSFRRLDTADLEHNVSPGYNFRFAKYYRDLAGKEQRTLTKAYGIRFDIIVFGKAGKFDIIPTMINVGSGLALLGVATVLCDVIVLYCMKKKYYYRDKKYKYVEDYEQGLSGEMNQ

rP2X4R T281A mutant = biological target: T2, rP2X4R T281A mutant (Rattus norvegicus, UniProt P51577, T281A); settings: for relative responsiveness: 100 µM agonist 2 s, relative to ATP (100%)
T2 construct: expressed in transfected cells; host or cells: HEK293T
T2 sequence (P51577 1-388 T281A): T1 sequence (P51577 1-388 R282A) with T281A, A282R

rP2X4R V288A mutant = biological target: T3, rP2X4R V288A mutant (Rattus norvegicus, UniProt P51577, V288A)
T3 construct: expressed in transfected cells; host or cells: HEK293T
T3 sequence (P51577 1-388 V288A): T1 sequence (P51577 1-388 R282A) with A282R, V288A

[1] = 100 µM ATP 60 s, biexponential fit
[2] = contribution of τdes2, 100 µM ATP 60 s
[3] = decay after removal of 1 or 3 µM ATP, 3 µM IVM
[4] = naïve receptors, 2–5 s application
[5] = 3 µM IVM 4-6 min vs IVM-untreated

2′(3′-O-(4-Benzoylbenzoyl)adenosine 5′-triphosphate [BzATP]
relative responsiveness (rP2X4R R282A mutant): 25.7±3.7% | relative responsiveness (rP2X4R T281A mutant): 26.7±3.9%

CSc1nc(N)c2ncn([C@@H]3O[C@H](COP(=O)(O)OP(=O)(O)OP(=O)(O)O)[C@@H](O)[C@H]3O)c2n1 [2-MeS-ATP, 2-(Methylthio)adenosine 5′-triphosphate]
relative responsiveness (rP2X4R R282A mutant): 55.1±12.9% | relative responsiveness (rP2X4R T281A mutant): 69.6±5.1%

Nc1ncnc2c1ncn2[C@@H]1O[C@H](COP(=O)(O)OP(=O)(O)OP(=O)(O)O)[C@@H](O)[C@H]1O [ATP]
EC50 rightward shift compared to WT (rP2X4R R282A mutant): approximately 10 fold | τdes1 (rP2X4R R282A mutant; [1]): 4.0 ± 0.3 s | τdes2 (rP2X4R R282A mutant; [1]): 14.7 ± 2.0 s | Imax (rP2X4R R282A mutant; 100–1000 µM ATP): 0.7 ± 0.1 nA | Imax+IVM (rP2X4R R282A mutant; ATP after 3 µM IVM 4-6 min): 4.5 ± 0.5 nA | A2 /(A1+A2) (rP2X4R R282A mutant; [2]): 64 ±14% | τoff +IVM (rP2X4R R282A mutant; [3]): 7.0 ± 0.6 s | EC50 (rP2X4R R282A mutant; [4]): 23 ± 8 µM | τdes (rP2X4R R282A mutant; weighted, 100 µM ATP 60 s): 14 ± 1.0 s | τdes1 (rP2X4R V288A mutant; [1]): 1.7 ± 0.3 s | τdes2 (rP2X4R V288A mutant; [1]): 9.3 ± 1.7 s | Imax (rP2X4R V288A mutant; 100–1000 µM ATP): 1.3 ± 0.2 nA | Imax+IVM (rP2X4R V288A mutant; ATP after 3 µM IVM 4-6 min): 3.0 ± 0.7 nA | A2 /(A1+A2) (rP2X4R V288A mutant; [2]): 72 ± 8% | τoff +IVM (rP2X4R V288A mutant; [3]): 19 ± 2.0 s | EC50 (rP2X4R V288A mutant; [4]): 5.7 ± 3.1 µM | τdes (rP2X4R V288A mutant; weighted, 100 µM ATP 60 s): 7.5 ± 1.6 s | τdes1 (rP2X4R T281A mutant; [1]): 2.4 ± 0.4 s | τdes2 (rP2X4R T281A mutant; [1]): 15.6 ± 2.3 s | Imax (rP2X4R T281A mutant; 100–1000 µM ATP): 2.3 ± 0.3 nA | Imax+IVM (rP2X4R T281A mutant; ATP after 3 µM IVM 4-6 min): 4.8 ± 0.9 nA | A2 /(A1+A2) (rP2X4R T281A mutant; [2]): 72 ± 12% | τoff +IVM (rP2X4R T281A mutant; [3]): 13 ± 1.0 s | EC50 (rP2X4R T281A mutant; [4]): 8.2 ± 2.8 µM | τdes (rP2X4R T281A mutant; weighted, 100 µM ATP 60 s): 12 ± 2.4 s

Nc1ncnc2c1ncn2[C@@H]1O[C@H](CO[P@](=O)(O)O[P@](=O)(O)O[P@@](=O)(O)S)[C@@H](O)[C@H]1O [ATPγS, Adenosine 5′-(γ-thio)triphosphate]
relative responsiveness (rP2X4R R282A mutant): 45.5±5.2% | relative responsiveness (rP2X4R T281A mutant): 50.2±5.9%

CC[C@H](C)[C@H]1O[C@]2(CC[C@@H]1C)C[C@@H]1C[C@@H](C/C=C(\C)[C@@H](O[C@H]3C[C@H](OC)[C@@H](O[C@H]4C[C@H](OC)[C@@H](O)[C@H](C)O4)[C@H](C)O3)[C@@H](C)/C=C/C=C3\CO[C@@H]4[C@H](O)C(C)=C[C@@H](C(=O)O1)[C@]34O)O2 [IVM, ivermectin]
Fold incr. Imax (rP2X4R V288A mutant; [5]): 2.3 ± 0.3 fold | Fold incr. Imax (rP2X4R T281A mutant; [5]): 2.1 ± 0.2 fold

Nc1ncnc2c1ncn2C1OC(COP(=O)(O)CP(=O)(O)OP(=O)(O)O)C(O)C1O (stereo not drawn) [α,β-meATP, α,β-methyleneadenosine 5′-triphosphate]
relative responsiveness (rP2X4R R282A mutant): 27.3±7.9% | relative responsiveness (rP2X4R T281A mutant): 28.2±5.5%
